Test results: PubChem BioAssay AID2060502 (Molecular Pharmacology Branch, DTP, NCI, 2025)

System: 885724-159-R-J1-PDC complex spheroid viability
Experiment: Anticancer human tumor 885724-159-R-J1-PDC patient-derived pancreatic adenocarcinoma cell line growth inhibition [GQUAD]
Settings: for IC50: curve of first compound; for viability, T/C: stronger effect = lower value
Summary of the method: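 Viability of tumor cells grown as complex spheroids with endothelial and stromal cells, exposed to drug combinations. Top concentration at or near clinical Cmax (else 10 microM), diluted in half-log increments.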

[1] = second compound 0.0316 µM, first compound 0.0316 µM
[2] = second compound 0.0316 µM, first compound 0.1 µM
[3] = second compound 0.0316 µM, first compound 0.316 µM
[4] = second compound 0.0316 µM, first compound 1 µM
[5] = second compound 0.0316 µM, first compound 3.16 µM
[6] = second compound 0.0316 µM, first compound 10 µM
[7] = second compound 0.1 µM, first compound 0.0316 µM
[8] = second compound 0.1 µM, first compound 0.1 µM
[9] = second compound 0.1 µM, first compound 0.316 µM
[10] = second compound 0.1 µM, first compound 1 µM
[11] = second compound 0.1 µM, first compound 3.16 µM
[12] = second compound 0.1 µM, first compound 10 µM
[13] = second compound 0.316 µM, first compound 0.0316 µM
[14] = second compound 0.316 µM, first compound 0.1 µM
[15] = second compound 0.316 µM, first compound 0.316 µM
[16] = second compound 0.316 µM, first compound 1 µM
[17] = second compound 0.316 µM, first compound 3.16 µM
[18] = second compound 0.316 µM, first compound 10 µM
[19] = second compound 1 µM, first compound 0.0316 µM
[20] = second compound 1 µM, first compound 0.1 µM
[21] = second compound 1 µM, first compound 0.316 µM
[22] = second compound 1 µM, first compound 1 µM
[23] = second compound 1 µM, first compound 3.16 µM
[24] = second compound 1 µM, first compound 10 µM
[25] = second compound 3.16 µM, first compound 0.0316 µM
[26] = second compound 3.16 µM, first compound 0.1 µM
[27] = second compound 3.16 µM, first compound 0.316 µM
[28] = second compound 3.16 µM, first compound 1 µM
[29] = second compound 3.16 µM, first compound 3.16 µM
[30] = second compound 3.16 µM, first compound 10 µM
[31] = second compound 10 µM, first compound 0.0316 µM
[32] = second compound 10 µM, first compound 0.1 µM
[33] = second compound 10 µM, first compound 0.316 µM
[34] = second compound 10 µM, first compound 1 µM
[35] = second compound 10 µM, first compound 3.16 µM
[36] = second compound 10 µM, first compound 10 µM
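Further: spheroids exposed to agents for seven days before readout.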
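Wherever viability, T/C is given: percent of vehicle control viability where 100% = DMSO wells.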

COc1cc(C2c3cc4c(cc3C(OC3OC5COC(C)OC5C(O)C3O)C3COC(=O)C23)OCO4)cc(OC)c1O (stereo unspecified) + Cc1cnc(CNC(=O)c2c(=O)c3ccc(N4CCCN(C)CC4)nc3n3c2sc2ccccc23)cn1
IC50 (second compound 0.0316 µM): > 10 µM
IC50 (second compound 0.1 µM): > 10 µM
IC50 (second compound 0.316 µM): > 10 µM
IC50 (second compound 1 µM): > 10 µM
IC50 (second compound 3.16 µM): > 10 µM
IC50 (second compound 10 µM): > 10 µM
viability, T/C [1]: 113%
viability, T/C [2]: 98.3%
viability, T/C [3]: 101%
viability, T/C [4]: 91.5%
viability, T/C [5]: 84.5%
viability, T/C [6]: 82.4%
viability, T/C [7]: 116%
viability, T/C [8]: 107%
viability, T/C [9]: 90.2%
viability, T/C [10]: 100%
viability, T/C [11]: 95.2%
viability, T/C [12]: 81.9%
viability, T/C [13]: 108%
viability, T/C [14]: 105%
viability, T/C [15]: 102%
viability, T/C [16]: 91.1%
viability, T/C [17]: 84.8%
viability, T/C [18]: 79.3%
viability, T/C [19]: 105%
viability, T/C [20]: 87.2%
viability, T/C [21]: 97.8%
viability, T/C [22]: 89.6%
viability, T/C [23]: 84.8%
viability, T/C [24]: 76.1%
viability, T/C [25]: 79.8%
viability, T/C [26]: 81.4%
viability, T/C [27]: 87.6%
viability, T/C [28]: 84.2%
viability, T/C [29]: 83.5%
viability, T/C [30]: 71.1%
viability, T/C [31]: 81.7%
viability, T/C [32]: 79.5%
viability, T/C [33]: 76.7%
viability, T/C [34]: 82.4%
viability, T/C [35]: 78.3%
viability, T/C [36]: 70.7%

Nc1ccn(C2OC(CO)C(O)C2(F)F)c(=O)n1 (stereo unspecified) + Cc1cnc(CNC(=O)c2c(=O)c3ccc(N4CCCN(C)CC4)nc3n3c2sc2ccccc23)cn1
IC50 (second compound 0.0316 µM): > 10 µM
IC50 (second compound 0.1 µM): > 10 µM
IC50 (second compound 0.316 µM): > 10 µM
IC50 (second compound 1 µM): > 10 µM
IC50 (second compound 3.16 µM): > 10 µM
IC50 (second compound 10 µM): > 10 µM
viability, T/C [1]: 105%
viability, T/C [2]: 104%
viability, T/C [3]: 82%
viability, T/C [4]: 98.1%
viability, T/C [5]: 74.9%
viability, T/C [6]: 70.3%
viability, T/C [7]: 96.8%
viability, T/C [8]: 113%
viability, T/C [9]: 82.9%
viability, T/C [10]: 82.4%
viability, T/C [11]: 81.5%
viability, T/C [12]: 84.4%
viability, T/C [13]: 97%
viability, T/C [14]: 97.9%
viability, T/C [15]: 88.6%
viability, T/C [16]: 78.3%
viability, T/C [17]: 89.9%
viability, T/C [18]: 78.8%
viability, T/C [19]: 85.5%
viability, T/C [20]: 87.4%
viability, T/C [21]: 80.2%
viability, T/C [22]: 77%
viability, T/C [23]: 69.2%
viability, T/C [24]: 70.6%
viability, T/C [25]: 75%
viability, T/C [26]: 76.3%
viability, T/C [27]: 78%
viability, T/C [28]: 62.9%
viability, T/C [29]: 70.9%
viability, T/C [30]: 68.4%
viability, T/C [31]: 72.4%
viability, T/C [32]: 75.1%
viability, T/C [33]: 71.4%
viability, T/C [34]: 69.2%
viability, T/C [35]: 70.9%
viability, T/C [36]: 74.8%

O=c1[nH]cc(F)c(=O)[nH]1 + Cc1cnc(CNC(=O)c2c(=O)c3ccc(N4CCCN(C)CC4)nc3n3c2sc2ccccc23)cn1
IC50 (second compound 0.0316 µM): > 10 µM
IC50 (second compound 0.1 µM): > 10 µM
IC50 (second compound 0.316 µM): > 10 µM
IC50 (second compound 1 µM): > 10 µM
IC50 (second compound 3.16 µM): > 10 µM
IC50 (second compound 10 µM): > 10 µM
viability, T/C [1]: 108%
viability, T/C [2]: 107%
viability, T/C [3]: 116%
viability, T/C [4]: 118%
viability, T/C [5]: 87.1%
viability, T/C [6]: 88.8%
viability, T/C [7]: 103%
viability, T/C [8]: 107%
viability, T/C [9]: 112%
viability, T/C [10]: 116%
viability, T/C [11]: 92.1%
viability, T/C [12]: 102%
viability, T/C [13]: 99.2%
viability, T/C [14]: 109%
viability, T/C [15]: 91.5%
viability, T/C [16]: 103%
viability, T/C [17]: 96.4%
viability, T/C [18]: 97.1%
viability, T/C [19]: 84.2%
viability, T/C [20]: 84.1%
viability, T/C [21]: 100%
viability, T/C [22]: 87.1%
viability, T/C [23]: 86.2%
viability, T/C [24]: 83%
viability, T/C [25]: 78.2%
viability, T/C [26]: 89.7%
viability, T/C [27]: 90.5%
viability, T/C [28]: 78.1%
viability, T/C [29]: 83.8%
viability, T/C [30]: 84.4%
viability, T/C [31]: 81.7%
viability, T/C [32]: 77%
viability, T/C [33]: 74.8%
viability, T/C [34]: 84%
viability, T/C [35]: 77.8%
viability, T/C [36]: 72.2%
